Measured values reported in ChEMBL document CHEMBL1123196, “p-Dimethoxy-substituted trans-octahydrobenzo[f]- and -[g]quinolines: synthesis and assessment of dopaminergic agonist effects” (1986).
Calls of active or inactive are those of the source. The rule behind the calls is not given here.

Assays:
[1] = system: Felis catus; assay: Compound at a dose of 100 ug/kg was evaluated for the reversal of the inhibition of nerve stimulation using the cat cardioaccelerator nerve preparation; Reversed inhibition; type: functional, organism-based
[2] = system: Felis catus; assay: Compound at a dose of 50 ug/kg was evaluated for the reversal of the inhibition of nerve stimulation using the cat cardioaccelerator nerve preparation; Reversed inhibition; type: functional, organism-based
[3] = target: D(2) dopamine receptor (Homo sapiens) (UniProt P14416); assay: Antagonistic activity at a dose of 3.4 umol/kg was evaluated against Dopamine receptor D2 in the […] cardioaccelerator nerve preparation; Inactive; type: functional; details: Felis catus
[4] = target: D(2) dopamine receptor (Homo sapiens) (UniProt P14416); assay: Agonistic activity at a dose of 13.3 umol/kg was evaluated in rats with unilateral lesion of the nigrostriatal pathway (post junctional dopamine receptors); Inactive; type: functional; details: Rattus norvegicus, target entry is the homologue from another species
[5] = target: D(2) dopamine receptor (Homo sapiens) (UniProt P14416); assay: Agonistic activity at a dose of 3.4 umol/kg was evaluated against Dopamine receptor D2 in the […] cardioaccelerator nerve preparation; Inactive; type: functional; details: Felis catus
[6] = target: T1, Dopamine receptor (Rattus norvegicus) (UniProt P25115+P19020+P30729+P18901+P61169); assay: Antagonistic activity at a dose of 13.3 umol/kg was evaluated in rats with unilateral lesion of the nigrostriatal pathway (post junctional dopamine receptors); Inactive; type: functional
[7] = organism: Felis catus; assay: Inhibitory dose was evaluated on the cat cardioaccelerator nerve preparation; type: functional; details: read-out: ID50 (the source's name)
[8] = target: D(2) dopamine receptor (Homo sapiens) (UniProt P14416); assay: Potency was evaluated for the activity against Dopamine receptor D2 of cat cardioaccelerator nerve preparation; Active; details: Felis catus; target entry is the homologue from another species
[9] = target: D(2) dopamine receptor (Homo sapiens) (UniProt P14416); assay: Antagonistic activity at a dose of 3.08 umol/kg was evaluated against Dopamine receptor D2 in the […] cardioaccelerator nerve preparation; Inactive; type: functional
[10] = target: D(2) dopamine receptor (Homo sapiens) (UniProt P14416); assay: Agonistic activity at a dose of 3.08 umol/kg was evaluated against Dopamine receptor D2 in the […] cardioaccelerator nerve preparation; Inactive; type: functional; details: Felis catus
[11] = target: D(2) dopamine receptor (Homo sapiens) (UniProt P14416); assay: Agonistic activity at a dose of 12.3 umol/kg was evaluated in rats with unilateral lesion of the nigrostriatal pathway (post junctional dopamine receptors); Inactive; type: functional; details: Rattus norvegicus, target entry is the homologue from another species
[12] = target: T1, Dopamine receptor (Rattus norvegicus); assay: Antagonistic activity at a dose of 12.3 umol/kg was evaluated in rats with unilateral lesion of the nigrostriatal pathway (post junctional dopamine receptors); Inactive; type: functional
[13] = organism: Felis catus; assay: Inhibitory dose was evaluated for the inhibition of the chronotropic response to nerve stimulation using the cat cardioaccelerator nerve preparation; type: functional; details: read-out: ID50 (the source's name)
[14] = organism: Felis catus; assay: Inhibitory dose was evaluated against cat cardioaccelerator nerve preparation; type: functional; details: read-out: ID50 (the source's name)

D(2) dopamine receptor (Homo sapiens), sequence (P14416 whole entry): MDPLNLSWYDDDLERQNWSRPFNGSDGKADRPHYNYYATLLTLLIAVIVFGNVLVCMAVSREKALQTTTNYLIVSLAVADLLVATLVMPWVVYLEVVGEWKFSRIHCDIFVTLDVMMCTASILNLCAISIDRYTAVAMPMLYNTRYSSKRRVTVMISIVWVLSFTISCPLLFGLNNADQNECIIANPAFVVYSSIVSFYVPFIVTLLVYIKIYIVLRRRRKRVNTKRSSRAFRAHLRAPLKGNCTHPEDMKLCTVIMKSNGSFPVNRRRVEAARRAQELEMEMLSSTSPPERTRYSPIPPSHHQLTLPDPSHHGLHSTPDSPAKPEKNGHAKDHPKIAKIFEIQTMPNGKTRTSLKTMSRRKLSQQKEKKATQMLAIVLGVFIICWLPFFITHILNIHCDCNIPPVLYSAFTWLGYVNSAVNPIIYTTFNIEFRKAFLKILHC

With `O=C(CCCN1CCC(O)(c2ccc(Cl)cc2)CC1)c1ccc(F)cc1` the Activity [1] was “Active” and the Activity [2] was “Active”.

In the case of `CCCN(CCC)CCc1cc(OC)ccc1OC`, the Activity [3] is reported as “inactive”, the Activity [4] is reported as “inactive” and the Activity [5] is reported as “inactive”. The Activity [6] was “inactive”.

`CN1CCc2cccc3c2[C@H]1Cc1ccc(O)c(O)c1-3` [APOMORPHINE] gave an ED50 [7] of 0.022 µmol/kg.

`CCCN(CCC)C1Cc2cccc(O)c2C1` (stereo not given) was tested, and the Activity [8] was “Active”.

With `CCCN1CCC[C@@H]2c3c(OC)ccc(OC)c3CC[C@@H]21` the Activity [9] was “inactive”, the Activity [10] was “inactive” and the Activity [11] was “inactive”. For the same molecule, the Activity [12] was “inactive”.

`CCCN1CCC[C@H]2c3c(OC)ccc(OC)c3CC[C@@H]21` showed an ED50 [13] of 1.17 µmol/kg.

`CCCN(CCC)C1CCc2c(O)cccc2C1` (stereo not given) was tested, and the Activity [8] was “Active”.

Molecule `CCCN1CCC[C@@H]2Cc3c(OC)ccc(OC)c3C[C@H]21` has an ED50 [14] of 0.032 µmol/kg.
